According to patent US20110117120A1, “Plasmodium falciparum HLA class I restricted T-cell epitopes” (priority 2009, published 2011):

Key:
Assay type in all cases: cell-based, human
[1] = system: CD8+ or CD4+ T-cell depleted PBMC; experiment: ELISpot IFN-γ assay after CD8+ or CD4+ T-cell depletion (Example 2, Table 6); settings: for CD4^+ depletion, test: CD4+ depleted; for CD8^+ Depletion, test: CD8+ depleted
Description: PBMC population depletion was conducted using anti-human CD4+ and anti-CD8^+ coated Dynabeads™ M-450 (Dynal, Great Neck, N.Y.) following the manufacturer's instructions. Mock depletion was done with Dynabeads coated with Sheep anti-mouse IgG. Flow cytometry confirmed that T-cell subset depletions were >99% in all experiments. The data is presented as the % effect (decrease) in activity after T cell subset depletion. […]
The results of this study, summarized in Table 6, identified other CD8^+ epitopes, associated specific HLA class I genes.

PBMC = experiment: ELISpot IFN-γ assay with PBMC of Ad5-PfCA immunized volunteers (Example 1); settings: for IFN-γ ELISpot activity of individual 15-mer peptide: threshold 40 SFC/million; for ELISpot activity of 1 month PBMC: v005, PBMC 1 month
Description: In order to assess the pools for their ability to induce T-cell responses, specifically CD 8^+ responses, PBMC, 1 month post immunization were used, from the five volunteers in Table 1, in ELISpot assays. In these studies, IFN-γ activity was measured in response to exposure to the peptide pools. The assays were conducted essentially as described by Wang, et al., Proc. Natl. Acad. Sci. (U.S.A.), 98: 10817-22.
The stimulation of circulating antigen-specific T cell lymphocytes was evaluated by measurement of γ-IFN induction by ELISPOT. The ELISpot assay was conducted using thawed cryopreserved PBMC at 200 K cells per well. Pre-challenge cells were taken at day 21 and day 22 post AdPfCA vaccination. Cells were suspended in […] complete medium and were stimulated with AMA1 peptides suspended in […] of complete medium. Peptide concentrations used in assays was 10 μg/ml of each peptide tested. Cultures were incubated for 36 h at 37° C., 5% CO2. Depending on availability of cells, each PBMC sample was assayed in duplicate, triplicate, or quadruplicate and the number of IFN-γ-secreting cells recognized as spot-forming cells (SFC) was enumerated using an automated ELISpot reader. In duplicate assays, all values were used in analysis. For triplicate or quadruplicate assays, outliers were rejected if any single value contributed more than 50% of the standard deviation of the triplicate (or quadruplicate) and if its value was three-fold greater or less than the average of the remaining two (or three) values. The mean spot forming cells (SFCs) obtained in negative control wells were subtracted from the value of each test well from the same sample. Negative counts generated by this background subtraction were converted to zero. The mean spot number of the test sample was then calculated and expressed as SFC/million PBMCs. Values obtained with pre-vaccinated samples were subtracted from the post-vaccination values.

[2] = system: CD4+ or CD8+ T cell depleted PBMC; experiment: ELISpot IFN-γ assay after CD4+ or CD8+ T cell depletion of PBMC (Example 1); parameters: % change of ELISpot activity, CD8 dep vs control: concentration or dose not given beside the values; ELISpot IFN-γ activity, Control dep / ELISpot IFN-γ activity, CD4 dep / ELISpot IFN-γ activity, CD8 dep: unit not given here; settings: for ELISpot IFN-γ activity, CD4 dep: CD4+ T cells depleted; for ELISpot IFN-γ activity, CD8 dep: CD8+ T cells depleted; for ELISpot IFN-γ activity, Control dep: mock depletion
Description: PBMC population depletion was conducted using anti-human CD4+ and anti-CD8^+ coated Dynabeads™ M-450 (Dynal, Great Neck, N.Y.) following the manufacturer's instructions. Mock depletion was done with Dynabeads coated with Sheep anti-mouse IgG. Flow cytometry confirmed that T-cell subset depletions were >99% in all experiments. The data is presented as the % effect (decrease) in activity after T cell subset depletion.
Finally, we wanted to confirm that indeed the responses to AMA14e were mediated by CD8^+ T cells. We compared activity to AMA14e in ELISpot depletion assays and ICS CD4^+ or CD8^+ T cell IFN-γ assays with Ap1-12 and recombinant AMA1 protein with v001 and v005 (FIG. 3). CD8^+ T cell depletion reduced ELISpot activity to AMA14e by about 85% in v001 and 95% in v005.

[3] = Vol. 1550-10, 12 wk post challenge
[4] = Vol. 1550-11, 4 wk post challenge

RYKSHGKGYNWGNYN [Ap8-7]
CD4^+ depletion % change [1, 3]: 26%
CD8^+ Depletion % change [1, 3]: 99%
CD4^+ depletion, test [1, 3]: 54 SFC/10^6
CD8^+ Depletion, test [1, 3]: 1 SFC/10^6
CD4^+ depletion, control [1, 3]: 72 SFC/10^6
CD8^+ Depletion, control [1, 3]: 72 SFC/10^6

KEYEYPLHQEHTYQQ [Ap1-13]
IFN-γ ELISpot activity of individual 15-mer peptide (PBMC; Volunteer 001): 42 SFC/10^6
% change of ELISpot activity, CD4 dep vs control ([2]; V001): +133%
% change of ELISpot activity, CD8 dep vs control ([2]; V001): −76%
ELISpot IFN-γ activity, CD4 dep ([2]; V001): 168
ELISpot IFN-γ activity, CD8 dep ([2]; V001): 17
ELISpot IFN-γ activity, Control dep ([2]; V001): 72

HVNEFPAIDLFECNK [Ap7-4]
IFN-γ ELISpot activity of individual 15-mer peptide (PBMC; Volunteer 001): 96 SFC/10^6

INEHREHPKEYEYPL [Ap1-11]
IFN-γ ELISpot activity of individual 15-mer peptide (PBMC; Volunteer 002): 180 SFC/10^6
IFN-γ ELISpot activity of individual 15-mer peptide (PBMC; Volunteer 005): 322 SFC/10^6
% change of ELISpot activity, CD4 dep vs control ([2]; V002): −18%
% change of ELISpot activity, CD8 dep vs control ([2]; V002): −94%
ELISpot IFN-γ activity, CD4 dep ([2]; V002): 152
ELISpot IFN-γ activity, CD8 dep ([2]; V002): 11
ELISpot IFN-γ activity, Control dep ([2]; V002): 185
% change of ELISpot activity, CD4 dep vs control ([2]; V005): −37%
% change of ELISpot activity, CD8 dep vs control ([2]; V005): −100%
ELISpot IFN-γ activity, CD4 dep ([2]; V005): 145
ELISpot IFN-γ activity, CD8 dep ([2]; V005): 0
ELISpot IFN-γ activity, Control dep ([2]; V005): 233

CNKLVFELSASDQPK [Ap7-7]
IFN-γ ELISpot activity of individual 15-mer peptide (PBMC; Volunteer 001): 77 SFC/10^6

MTLDEMRHFYKDNKY [Ap4-10]
IFN-γ ELISpot activity of individual 15-mer peptide (PBMC; Volunteer 002): 82 SFC/10^6
IFN-γ ELISpot activity of individual 15-mer peptide (PBMC; Volunteer 005): 118 SFC/10^6

FKADRYKSHGKGYNW [Ap8-6]
IFN-γ ELISpot activity of individual 15-mer peptide (PBMC; Volunteer 012): 143 SFC/10^6
CD4^+ depletion % change [1, 3]: 26%
CD8^+ Depletion % change [1, 3]: 100%
CD4^+ depletion, test [1, 3]: 81 SFC/10^6
CD8^+ Depletion, test [1, 3]: 0 SFC/10^6
CD4^+ depletion, control [1, 3]: 109 SFC/10^6
CD8^+ Depletion, control [1, 3]: 109 SFC/10^6

CEIFNVKPTCLINNS [Ap8-12]
IFN-γ ELISpot activity of individual 15-mer peptide (PBMC; Volunteer 005): 127 SFC/10^6

TSNNEVVVKEEYKDE [Ap10-13]
IFN-γ ELISpot activity of individual 15-mer peptide (PBMC; Volunteer 001): 250 SFC/10^6
IFN-γ ELISpot activity of individual 15-mer peptide (PBMC; Volunteer 012): 233 SFC/10^6
% change of ELISpot activity, CD4 dep vs control ([2]; V001): +148%
% change of ELISpot activity, CD8 dep vs control ([2]; V001): −88%
ELISpot IFN-γ activity, CD4 dep ([2]; V001): 252
ELISpot IFN-γ activity, CD8 dep ([2]; V001): 13
ELISpot IFN-γ activity, Control dep ([2]; V001): 103
% change of ELISpot activity, CD4 dep vs control ([2]; V012): +14%
% change of ELISpot activity, CD8 dep vs control ([2]; V012): −100%
ELISpot IFN-γ activity, CD4 dep ([2]; V012): 90
ELISpot IFN-γ activity, CD8 dep ([2]; V012): 0
ELISpot IFN-γ activity, Control dep ([2]; V012): 79

EMRHFYKDNKYVKNL [Ap4-11]
IFN-γ ELISpot activity of individual 15-mer peptide (PBMC; Volunteer 005): 65 SFC/10^6
ELISpot activity of 1 month PBMC (PBMC): 65 sfc/m

NSTCRFFVCK (listed as Plasmodium falciparum)
CD4^+ depletion % change [1, 4]: 26%
CD8^+ Depletion % change [1, 4]: 100%
CD4^+ depletion, test [1, 4]: 153 SFC/10^6
CD8^+ Depletion, test [1, 4]: 0 SFC/10^6
CD4^+ depletion, control [1, 4]: 207 SFC/10^6
CD8^+ Depletion, control [1, 4]: 207 SFC/10^6
T-cell response in ELISpot ([1]; primarily attributable to CD8^+ T-cell response): stimulated a significant T-cell response

LLSAFEFTYMINFGR [Ap1-3]
IFN-γ ELISpot activity of individual 15-mer peptide (PBMC; Volunteer 001): 48 SFC/10^6
% change of ELISpot activity, CD4 dep vs control ([2]; V001): −32%
% change of ELISpot activity, CD8 dep vs control ([2]; V001): −56%
ELISpot IFN-γ activity, CD4 dep ([2]; V001): 58
ELISpot IFN-γ activity, CD8 dep ([2]; V001): 37
ELISpot IFN-γ activity, Control dep ([2]; V001): 85

LMSPMTLDEMRHFYK [Ap4-9]
IFN-γ ELISpot activity of individual 15-mer peptide (PBMC; Volunteer 002): 189 SFC/10^6
IFN-γ ELISpot activity of individual 15-mer peptide (PBMC; Volunteer 005): 395 SFC/10^6
% change of ELISpot activity, CD4 dep vs control ([2]; V005): −32%
% change of ELISpot activity, CD8 dep vs control ([2]; V005): −100%
ELISpot IFN-γ activity, CD4 dep ([2]; V005): 137
ELISpot IFN-γ activity, CD8 dep ([2]; V005): 1
ELISpot IFN-γ activity, Control dep ([2]; V005): 204

NQYLKDGGFAFPPTE [Ap4-5]
IFN-γ ELISpot activity of individual 15-mer peptide (PBMC; Volunteer 005): 50 SFC/10^6
ELISpot activity of 1 month PBMC (PBMC): 50 sfc/m

EDIPHVNEFPAIDLF [Ap7-3]
IFN-γ ELISpot activity of individual 15-mer peptide (PBMC; Volunteer 001): 139 SFC/10^6

QNSDVYRPINEHREH [Ap1-9]
IFN-γ ELISpot activity of individual 15-mer peptide (PBMC; Volunteer 001): 48 SFC/10^6

ETQKCEIFNVKPTCL [Ap8-11]
IFN-γ ELISpot activity of individual 15-mer peptide (PBMC; Volunteer 001): 48 SFC/10^6
IFN-γ ELISpot activity of individual 15-mer peptide (PBMC; Volunteer 005): 218 SFC/10^6
IFN-γ ELISpot activity of individual 15-mer peptide (PBMC; Volunteer 008): 48 SFC/10^6
